Data published in publication PMC10671693, “Design, Synthesis, and Antitumor Activity Evaluation of Proteolysis-Targeting Chimeras as Degraders of Extracellular Signal-Regulated Kinases 1/2” (International Journal of Molecular Sciences, 2023).
“Also recorded” adds a separate entry of the source.

Legend:
HCT116 cells = assay: Cell proliferation (CCK8) assay, HCT116; assay type: cell-based, human; details: Homo sapiens, HCT-116, 72 h, HCT116, 72 h, read-out: IC50 (growth inhibition, cytotoxicity)
Protocol: (§1) A375, HCT116, Calu-6, and B16-F10 cells were purchased from American Type Culture Collection (ATCC) and cultured in DMEM high glucose media (SH30022.01, Cytiva, Shanghai, China) supplemented with 10% fetal bovine serum (10099-144, Gibco, Carlsbad, CA, USA) and 1% penicillin/streptomycin (Solarbio, Beijing, China) in an incubator at 37 °C with 5% CO2.
(§2) A 96-well plate (3599, Corning, New York, NY, USA) was inoculated with 100 μL of complete medium containing 10,000 cells, and the experimental, control, and blank groups were established. Three parallel wells were used per concentration. After 10 h, the media from the experimental and control groups were replaced with a compound containing the indicated concentration of the complete medium. Cells were incubated for 72 h before 10 μL of CCK8 reagent (CA1210, Solarbio, Beijing, China) was added to each well and incubated for 1 h. Using a microplate reader (Tecan, Mannendorf, Switzerland), the absorbance at 450 nm was measured. The IC50 values were determined using GraphPad Prism 8 and nonlinear regression curve fitting.

A375 cells = assay: Cell proliferation (CCK8) assay, A375; assay type: cell-based; details: Homo sapiens, A-375, A375, 72 h, read-out: IC50 (growth inhibition, cytotoxicity)
Protocol: as §1, §2

Calu-6 cells = assay: Cell proliferation (CCK8) assay, Calu-6; assay type: cell-based; details: Homo sapiens, Calu-6, 72 h, read-out: IC50 (growth inhibition, cytotoxicity)
Protocol: as §1, §2

HCT116 tumor = assay: HCT116 subcutaneous xenograft model in nude mice; assay type: in vivo; details: mouse, in vivo
Protocol: Male BALB/c nude mice of around 8 weeks old were purchased from Charles River (Beijing, China). Nude mice were raised in SPF-grade animal rooms and had access to water and food ad libitum. HCT116 colorectal cancer cells were grown in DMEM supplemented with 10% fetal calf serum and 1% penicillin/streptomycin under standard cell culture conditions. HCT116 xenografts were prepared by subcutaneously injecting 5× 10^6 cells suspended in PBS into the right flank of each male BALB/c nude mouse. Tumor growth was monitored via caliper measurement, and volume was calculated using the following equation: 0.5 × max (length/width) × min (length/width) × min (length/width). When the tumors reached an average of approximately 100 mm^3, the mice were randomized into groups of five. The mice were injected intraperitoneally once a day at doses of 6, 12, 25 mg/kg compound B1-10J and 25 mg/kg 5-FU. Body weights and tumor volumes were measured every 2–3 days. All studies were appropriately statistically powered.

ERK1/2 = assay: Western blot ERK1/2 protein degradation assay in A375 cells; assay type: cell-based, human; details: 48 h; for ERK1/2 degradative activity (in words): Western blot; for DC50: Western blotting and grayscale quantification; for DCmax: Western blot with grayscale quantification
Protocol: as §1
Cells were cultured under the indicated conditions as described in “Cell culture”. Cells were seeded in 6-well plates (3516, Corning, New York, NY, USA). Compounds were dissolved in DMSO for storage (10 mM). Following compound treatment, cells were washed with PBS, scraped from the plate, and lysed using cell lysis buffer (Applygen, Beijing, China). After the protein in the cell lysate was quantified via the BCA quantification method, the samples were placed in a metal bath at 100 °C and heated for 5 min. Cell lysates were separated using a 10% SDS–PAGE gel and transferred to PVDF membranes (Merck Millipore, Burlington, MA, USA). The PVDF membrane was blocked with 5% nonfat dry milk in TBST for one hour. The PVDF membrane was transferred to the antibody diluent and incubated overnight at 4 °C. PVDF membranes were washed three times with TBST for 5 min each and then incubated with the appropriate HRP-conjugated secondary antibody for 1 h at room temperature. After washing three more times with TBST, the PVDF membrane was stained with a hypersensitive ECL chemiluminescence reagent (Biodragon, Beijing, China) and then imaged with Tanon 5200. Grayscale quantitative analysis was performed using ImageJ software. Statistical analysis was performed using GraphPad Prism 8. DC50 and Dmax values were fitted using a four-parameter [inhibitor] versus response and reported directly from the Prism output. Mean ± SD and unpaired t tests were performed in GraphPad Prism.

melting point [°C]	DC50 (ERK1/2) [µM]	Structure (SMILES)	IC50 (HCT116 cells) [µM]	IC50 (A375 cells) [µM]	IC50 (Calu-6 cells) [µM]	body weight / tolerability (HCT116 tumor)	ERK1/2 degradative activity (in words) (ERK1/2)	DCmax (ERK1/2)
		CNCCC#Cc1cc(Nc2ncc(C)c(-c3cc4n(c3)C[C@@H](C)N(Cc3cccc(C)n3)C4=O)n2)ccn1 [B-J]	17.8 ± 3.9	16.8 ± 3	6.5 ± 1.3			
		O=c1[nH]cc(F)c(=O)[nH]1 [Compound 5-FU, 5-fluorouracil, reference compound]				trend of weight loss		
		Cc1cccc(CN2C(=O)c3cc(-c4nc(Nc5ccn(CCCCNC(=O)CCCCCCCCCNc6cccc7c6C(=O)N(C6CCC(=O)NC6=O)C7=O)n5)ncc4C)cn3C[C@H]2C)n1 (stereo partly shown) [Compound B1-10BZ]					degradative activity disappeared; also recorded: no degradative activity was observed	
		Cc1cccc(CN2C(=O)c3cc(-c4nc(Nc5cccc(C#CCCNC(=O)CCCCCCCCCNc6cccc7c6C(=O)N(C6CCC(=O)NC6=O)C7=O)c5)ncc4C)cn3C[C@H]2C)n1 (stereo partly shown) [Compound B1-10B]					no degradative activity was observed	
110 to 111		Cc1cccc(CN2C(=O)c3cc(-c4nc(Nc5ccnc(NCCCNC(=O)CCCCCCCCCNc6cccc7c6C(=O)N(C6CCC(=O)NC6=O)C7=O)c5)ncc4C)cn3C[C@H]2C)n1 (stereo partly shown) [Compound B1-10N]					degradative activity disappeared	
	0.616 ± 0.389	Cc1cccc(CN2C(=O)c3cc(-c4nc(Nc5ccnc(C#CCCN6CCN(CCCCCCCCNc7cccc8c7C(=O)N(C7CCC(=O)NC7=O)C8=O)CC6)c5)ncc4C)cn3C[C@H]2C)n1 (stereo partly shown) [Compound B1-10P]	2.2 ± 0.6	> 30	> 30		slightly increased DC50; also recorded: effective ERK1/2 degraders	
	0.333 ± 0.169	Cc1cccc(CN2C(=O)c3cc(-c4nc(Nc5ccnc(C#CCCNC(=O)CCCCCCCCCNc6cccc7c6C(=O)N(C6CCC(=O)NC6=O)C7=O)c5)ncc4C)cn3C[C@H]2C)n1 (stereo partly shown) [Compound B1-10]	> 30	> 30	> 30		effective ERK1/2 degraders	exceeding 65%
144 to 145	0.699 ± 0.361	Cc1cccc(CN2C(=O)c3cc(-c4nc(Nc5ccnc(C#CCCNC(=O)CCCCCCCCC(=O)N[C@H](C(=O)N6C[C@H](O)C[C@H]6C(=O)N[C@@H](C)c6ccc(-c7scnc7C)cc6)C(C)(C)C)c5)ncc4C)cn3C[C@H]2C)n1 [Compound B2-10]					effective ERK1/2 degraders	
		Cc1cccc(CN2C(=O)c3cc(-c4nc(Nc5ccnc(C#CCCN(C)CCCCCCCCCCCC(=O)N[C@H](C(=O)N6C[C@H](O)C[C@H]6C(=O)N[C@@H](C)c6ccc(-c7scnc7C)cc6)C(C)(C)C)c5)ncc4C)cn3C[C@H]2C)n1 [Compound B2-12J]					lost its degradative activity	
145 to 146	3.8 ± 1.82	Cc1cccc(CN2C(=O)c3cc(-c4nc(Nc5ccnc(C#CCCN6CCN(CCCCCCCCCC(=O)N[C@H](C(=O)N7C[C@H](O)C[C@H]7C(=O)N[C@@H](C)c7ccc(-c8scnc8C)cc7)C(C)(C)C)CC6)c5)ncc4C)cn3C[C@H]2C)n1 [Compound B2-12P]					significantly increased DC50 value	
143 to 144	0.383 ± 0.208	Cc1cccc(CN2C(=O)c3cc(-c4nc(Nc5ccnc(C#CCCNC(=O)CCCCCCCCCCC(=O)N[C@H](C(=O)N6C[C@H](O)C[C@H]6C(=O)N[C@@H](C)c6ccc(-c7scnc7C)cc6)C(C)(C)C)c5)ncc4C)cn3C[C@H]2C)n1 [Compound B2-12]	11.7 ± 10.5	7.5 ± 6.1	> 30		effective ERK1/2 degraders	exceeding 65%
128 to 129	0.307 ± 0.191	Cc1cccc(CN2C(=O)c3cc(-c4nc(Nc5ccnc(C#CCCNC(=O)CCCCCCCCCCCCC(=O)N[C@H](C(=O)N6C[C@H](O)C[C@H]6C(=O)N[C@@H](C)c6ccc(-c7scnc7C)cc6)C(C)(C)C)c5)ncc4C)cn3C[C@H]2C)n1 [Compound B2-14]					effective ERK1/2 degraders	exceeding 65%
